# What was measured:
# indigenous microflora = experiment: Soil sample suspension maintained in presence of bleocin, growth of colonies; assay type: cell-based; settings: 50 μg/ml bleocin
# Procedure: (§1) Soil samples containing Deinococcus radiopugnans strain DRH40 were placed in suspension under conditions similar to that of example 2. In place of irradiation, the suspensions were maintained in the absence (control) or presence of 50 μg/ml or 100 μg/ml of bleocin.
# [1] = test system: Deinococcus radiopugnans strain DRH40; experiment: as above; assay type: cell-based; settings: 50 μg/ml bleocin
# Procedure: as §1
substance,measurement,setting,value
bleocin,effect on indigenous microflora,indigenous microflora,decreases drastically
same,growing pink colonies (Deinococcus),[1],pink colonies are present
